Results: patent publication US20230273220A1, “METHODS FOR PREDICTION, DETECTION AND MONITORING OF SUBSTANCEUSE DISORDERS AND/OR AN INFECTION” (NATIONAL HEALTH RESEARCH INSTITUTES, priority 2020, published 2023)

Tests used:
[1] = Plasma nicotine metabolite cotinine concentration in MMT patients subgrouped by age; type: in vivo, human
[2] = Self-reported skin irritation after taking methadone in MMT patients; conditions: 15 of 344 MMT patients
Description: The inclusion criteria included subjects aged 18 or above, having undergone MMT for at least three months with regular attendance for the past seven days, and a methadone dosage adjustment of not more than 10 mg in the past seven days. Exclusion criteria included co-morbidity with physical and mental disorders requiring immediate treatment and pregnancy.

Compound	Plasma cotinine concentration ([1]; MMT subjects age <45, n=275, mean ± SD) [ng/mL]	Plasma cotinine concentration ([1]; MMT subjects age ≥45, n=69, mean ± SD) [ng/mL]	Patients self-reporting skin irritation after taking methadone [2]
CN1C(=O)CC[C@H]1c1cccnc1 [Cotinine]	384.20 ± 184.90	439.65 ± 203.44	–
CCC(=O)C(CC(C)N(C)C)(c1ccccc1)c1ccccc1 (stereo not drawn) [R,S-methadone]	–	–	around 4.4%
